Assay results as given in patent US7115639B2, “Pyrrolidine oxadiazole- and thiadiazole oxime derivatives being oxytocin receptor antagonists” (Applied Research Systems ARS Holding N.V., priority 2001, dated 2006).

Experiments:
[1] = test system: oxytocin-induced uterine contractions in the rat; test: In vivo model for inhibition of uterine contractions; details: subcutaneous, NP3S, 5 ml/kg
Description: d) In Vivo Model for Inhibition of Uterine Contractions
The assay intends to show the biological effect of tested compounds in an in vivo model of preterm labor, premature birth.
Non-pregnant Charles River CD(SD) BR female rats (9–10 weeks old, 200–250 g) were treated at 18 and 24 hours before the experiment with 250 μg/kg, i.p. diethylstilbestrol (DES). For the assay, the animal was anaesthetised by urethane (1.75 g/kg, i.p.) and placed on an homeothermic operating table. The trachea was isolated and cannulated with a suitable polyethylene (PE) tubing. A midline incision at the hypogastrium level was made and one uterine horn exposed, its cephalic end cannulated with a PE240 tubing and, after filling the internal cavity with 0.2 ml of sterile physiological saline, connected to a “Gemini” amplifying/recording system via a P231D Gould Statham pressure transducer, in, order to measure said pressure. For the i.v. route of administration of the test compounds, one jugular vein was isolated and cannulated with a PE60 tubing connected to a butterfly needle to allow the administration by a dispensing syringe. In the case of intraduodenal administration of the test compounds, the duodenum was isolated and similarly cannulated through a small incision in its wall. One carotid artery was also isolated and cannulated with PE60 catheter and connected to a suitable syringe for blood sample collection (see below). After a stabilization period, the same dose of oxytocin was repeatedly injected intravenously at 30-min intervals. […] Further injections of the same dose of oxytocin were then made for a suitable time after treatment to assess inhibitory effects of the compounds under study. The contractile response of the uterus to oxytocin was quantified by measuring the intrauterine pressure and the number of contractions.
A total of six animals is forming one group which is treated with a given test compound at a given concentration (see above).
The effect of the test compounds were evaluated by comparing pre- and post-treatment pressure values. In addition, at 2, 30, 90 and 210 minutes after test compound administration, a 0.5-ml blood sample was withdrawn from the cannulated carotid artery of each experimental animal. Plasma was obtained by standard laboratory procedure and the resulting samples were stored at −20° C.
The activities of the pyrrolidine derivatives claimed in the formula I were assessed using the above described in vivo biological assay. The values refer to the capacity of the example compound according to formula I to effectively antagonize oxytocin-induced uterine contractions in the rat.

[2] = test system: oxytocin-induced uterine contractions in the rat; test: as above; details: subcutaneous, NP3S, 5 ml/kg, 10 mg/kg

CO/N=C1/C[C@@H](c2nc(CCO)no2)N(C(=O)c2ccc(-c3ccccc3)cc2)C1 [(3Z,5S)-1-([1,1′-biphenyl]-4-ylcarbonyl)-5-[3-(2-hydroxyethyl)-1,2,4-oxadiazol-5-yl]-3-pyrrolidinone O-methyloxime]
% Reduction of Uterine Contraction ([1]; 1 mg/kg): −13.2 ± 5.6%
% Reduction of Uterine Contraction ([1]; 3 mg/kg): −30.2 ± 1.1%
% Reduction of Uterine Contraction ([1]; 30 mg/kg): −57.5 ± 8.6%
% Reduction of Uterine Contraction [2]: −39.7 ± 7.2%
melting point: 141 °C
